Results: US20240254089A1, “MODULATORS OF MAS-RELATED G-PROTEIN RECEPTOR X4 AND RELATED PRODUCTS AND METHODS” (ESCIENT PHARMACEUTICALS, INC., priority 2020, published 2024)

Molecular target: T1, human MRGPR X4 (Homo sapiens, UniProt Q96LA9)
T1 construct: expressed in transfected cells
Assay: MRGPR X4 antagonist activity, IP-One Gq HTRF assay in stably transfected HEK cells
Type: cell-based
Experimental: HEK cells stably transfected to express human MIRGPR X4 were maintained in an incubator at 37° C. with 5% CO2 and grown in DMEM media with 10% fetal bovine serum (FBS) and […] each of sodium pyruvate, Glutamax, penicillin/streptomycin, and Geneticin. HEK cells stably transfected to express mouse MRGPR A1 were maintained in the same incubator and grown in DMEM media with 10% FBS, 1% each of sodium pyruvate, Glutamax, penicillin/streptomycin, Geneticin, and 2.2 mg/mL Hygromycin.
Cells were plated in a 384-well assay plate at 20,000 cells per well in 12 μL of Opti-MEM and kept in an incubator overnight. On the day of the assay, compounds solubilized at 10 mM in DMSO were added as a 10-point curve (10 uM final top concentration with 1:3 serial dilutions) using a Tecan D300E digital dispenser. Agonists were diluted in assay buffer (final concentrations of 5.7 mM Tris-HCl, 43 mM NaCl, 50 mM LiCl, pH=8) and 2 μL of the appropriate agonist are added to each well. Final concentrations of agonists were 10 μM bilirubin, 20 μM deoxycholic acid, or 100 μM conjugated bilirubin (obtained from Lee Biosolutions, catalog #910-12). Final concentrations of DMSO were kept consistent across the plate. Plates were incubated in the dark for 1 h at 37° C. and then for 30 minutes at room temperature. IP-1 standards and HTRF detection reagents were added according to the IP-One—Gq Kit purchased from Cisbio (part number 62IPAPEJ) and incubated in the dark for 1 h at room temperature. The plate was read on a Molecular Devices SpectraMax iD5 plate reader. The HTRF ratio was calculated from the raw data and graphed using GraphPad Prism to calculate an IC50 value for each compound.

T1 sequence (Q96LA9 whole entry): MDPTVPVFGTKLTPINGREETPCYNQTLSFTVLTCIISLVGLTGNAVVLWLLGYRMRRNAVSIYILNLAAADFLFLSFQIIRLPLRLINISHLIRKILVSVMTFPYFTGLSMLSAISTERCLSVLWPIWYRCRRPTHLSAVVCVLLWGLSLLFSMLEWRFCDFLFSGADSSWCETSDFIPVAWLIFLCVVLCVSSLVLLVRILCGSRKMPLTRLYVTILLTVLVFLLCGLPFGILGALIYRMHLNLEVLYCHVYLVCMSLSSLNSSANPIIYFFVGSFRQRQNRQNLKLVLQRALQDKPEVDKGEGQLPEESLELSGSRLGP

SMILES | IC50
Cc1cccn2c(CCNC(=O)c3nn(Cc4ccc(Cl)cc4)c4ccc(F)cc34)nnc12 [Compound 1] | < 100 nM
O=C(NCCc1nnc2ccccn12)c1nn(Cc2ccc(Cl)cc2)c2ccc(F)cc12 [Compound 2] | < 100 nM
O=C(NCCc1nnc2ccccn12)c1nn(Cc2ccc(Cl)cc2)c2cc(F)ccc12 [Compound 3] | < 100 nM
Cc1cccn2c(CCNC(=O)c3nn(Cc4ccc(Cl)cc4)c4ccccc34)nnc12 [Compound 4] | < 100 nM
O=C(NCCc1nnc2n1CCCCC2)c1nn(Cc2ccc(C(F)(F)F)cc2)c2ccccc12 [Compound 5] | < 100 nM
O=C(NCCc1nnc2n1CCCCC2)c1nn(Cc2ccc(Cl)cc2)c2ccccc12 [Compound 6] | < 100 nM
Cc1cc(Cn2nc(C(=O)NCCc3nnc4n3CCCCC4)c3ccccc32)ccc1Cl [Compound 7] | < 100 nM
O=C(NCCc1nnc2n1CCCCC2)c1nn(Cc2ccc(Cl)cc2)c2ccc(Cl)cc12 [Compound 8] | < 100 nM
O=C(NCCc1cccc(O)c1)c1nn(Cc2ccc(Cl)cc2)c2ccccc12 [Compound 9] | < 100 nM
O=C(NCCc1nnc2ccccn12)c1nn(Cc2ccc(Cl)cc2)c2ccccc12 [Compound 10] | < 100 nM
Cc1cc(Cl)ccc1Cn1nc(C(=O)NCCc2nnc3n2CCCCC3)c2ccccc21 [Compound 11] | < 100 nM
O=C(NCCc1nnc2ccccn12)c1nn(Cc2ccc(Cl)cc2)c2ccc(Cl)cc12 [Compound 12] | < 100 nM
Cc1ccc(Cn2nc(C(=O)NCCc3nnc4n3CCCCC4)c3ccccc32)cc1 [Compound 13] | < 100 nM
O=C(NCCc1nnc2ccccn12)c1nn(Cc2ccc(C(F)(F)F)cc2)c2ccccc12 [Compound 14] | < 100 nM
O=C(NCCc1nnc2ccccn12)c1nn(Cc2ccc(Cl)cc2)c2cccc(F)c12 [Compound 15] | < 100 nM
O=C(NCCc1cccnc1)c1nn(Cc2ccc(Cl)cc2Cl)c2ccccc12 [Compound 16] | < 100 nM
O=C(NCCc1cccnc1)c1nn(Cc2ccc(Cl)c(F)c2)c2ccccc12 [Compound 17] | < 100 nM
O=C(NCCc1cccnc1)c1nn(Cc2ccc(Cl)cc2F)c2ccccc12 [Compound 18] | < 100 nM
O=C(NCCc1cccnc1)c1nn(Cc2ccc(Cl)cc2)c2ccccc12 [Compound 19] | < 100 nM
O=C(NCCc1ccccc1O)c1nn(Cc2ccc(Cl)cc2)c2ccccc12 [Compound 20] | < 100 nM
Cc1ccc(CCNC(=O)c2nn(Cc3ccc(Cl)cc3)c3ccccc23)cn1 [Compound 21] | < 100 nM
O=C(NCCc1cccnc1)c1nn(Cc2ccc(Cl)c(Cl)c2)c2ccccc12 [Compound 22] | < 100 nM
O=C(NCCc1ccccn1)c1nn(Cc2ccc(Cl)cc2)c2ccccc12 [Compound 23] | < 100 nM
O=C(NCCc1nnc2n1CCCCC2)c1nn(Cc2ccc(OC(F)F)cc2)c2ccccc12 [Compound 24] | < 100 nM
O=C(NCCc1nnc2n1CCCC2)c1nn(Cc2ccc(Cl)cc2)c2ccccc12 [Compound 25] | < 100 nM

SMILES | IC50
Cc1ccc(Cn2nc(C(=O)NCCc3nnc4n3CCCCC4)c3c(C#N)cccc32)cc1 [Compound 26] | < 100 nM
Cc1ccc(Cn2nc(C(=O)NCCc3cccnc3)c3cc(Cl)ccc32)cc1 [Compound 27] | < 100 nM
Cc1ccc(Cn2nc(C(=O)NCCc3nc4c(s3)CCCC4)c3ccccc32)cc1 [Compound 28] | 100 to 500 nM
O=C(NCCc1nc2c(s1)CCCC2)c1nn(Cc2ccc(Cl)cc2)c2ccccc12 [Compound 29] | 100 to 500 nM
Cc1ccc(Cn2nc(C(=O)NCCc3nnc4n3CCCCC4)c3c(F)cccc32)cc1 [Compound 30] | 100 to 500 nM
O=C(NCCc1ccncc1)c1nn(Cc2ccc(Cl)cc2)c2ccccc12 [Compound 31] | 100 to 500 nM
Cc1cc(Cn2nc(C(=O)NCCc3cccnc3)c3ccccc32)ccc1Cl [Compound 32] | 100 to 500 nM
O=C(NCCc1cn2c(n1)SCC2)c1nn(Cc2ccc(Cl)cc2)c2ccccc12 [Compound 33] | 100 to 500 nM
Cc1nc(CCNC(=O)c2nn(Cc3ccc(Cl)cc3)c3ccccc23)sc1C [Compound 34] | 100 to 500 nM
CC(C)c1ccc(Cn2nc(C(=O)NCCc3nnc4n3CCCCC4)c3ccccc32)cc1 [Compound 35] | 100 to 500 nM
Cc1ccc(Cn2nc(C(=O)NCCc3nc4c(s3)CCC4)c3ccccc32)cc1 [Compound 36] | 100 to 500 nM
Cc1cc(Cl)ccc1Cn1nc(C(=O)NCCc2cccnc2)c2ccccc21 [Compound 37] | 100 to 500 nM
Cc1ccc(Cn2nc(C(=O)NCCc3nc(C)cs3)c3ccccc32)cc1 [Compound 38] | 100 to 500 nM
Cc1ncccc1CCNC(=O)c1nn(Cc2ccc(C(F)(F)F)cc2)c2ccccc12 [Compound 39] | 100 to 500 nM
O=C(NCCc1ccc(O)cc1)c1nn(Cc2ccc(Cl)cc2)c2ccccc12 [Compound 40] | 100 to 500 nM
Cc1ccc(Cn2nc(C(=O)NCCc3cn4c(n3)SCC4)c3ccccc32)cc1 [Compound 41] | 100 to 500 nM
O=C(NCCc1cccnc1)c1nn(Cc2ccc(OC(F)F)cc2)c2ccccc12 [Compound 42] | 100 to 500 nM
COc1cc(Cn2nc(C(=O)NCCc3cccnc3)c3ccccc32)ccc1Cl [Compound 43, 1-(4-chloro-3-methoxybenzyl)-N-(2-(pyridin-3-yl)ethyl)-1H-indazole-3-carboxamide] | 100 to 500 nM
Cc1ncccc1CCNC(=O)c1nn(Cc2ccc(Cl)cc2)c2ccccc12 [Compound 44] | 100 to 500 nM
O=C(NCCc1noc2ccccc12)c1nn(Cc2ccc(Cl)cc2)c2ccccc12 [Compound 45] | 100 to 500 nM
O=C(NCCc1nc2ccccc2s1)c1nn(Cc2ccc(Cl)cc2)c2ccccc12 [Compound 46] | 100 to 500 nM
N#Cc1ccccc1Cn1nc(C(=O)NCCc2cccnc2)c2ccccc21 [Compound 47] | 100 to 500 nM
Cn1ccc(CCNC(=O)c2nn(Cc3ccc(Cl)cc3)c3ccccc23)n1 [Compound 48] | 100 to 500 nM
Cc1ccc(CCNC(=O)c2nn(Cc3ccc(C(F)(F)F)cc3)c3ccccc23)cn1 [Compound 49] | 100 to 500 nM
CC(C)(C)c1ccc(Cn2nc(C(=O)NCCc3nnc4n3CCCCC4)c3ccccc32)cc1 [Compound 50] | 100 to 500 nM

SMILES | IC50
O=C(NCCc1nnc2ccccn12)c1nn(Cc2ccc(F)cc2)c2ccccc12 [Compound 51] | 100 to 500 nM
Cc1ccc(Cn2nc(C(=O)NCCc3cccnc3)c3ccccc32)cc1 [Compound 52] | 100 to 500 nM
Cc1ccc(Cn2nc(C(=O)NCCc3nc(C)c(C)s3)c3ccccc32)cc1 [Compound 53] | 100 to 500 nM
O=C(NCCc1nc2c(s1)CCCC2)c1nn(Cc2ccc(Cl)c(F)c2)c2ccccc12 [Compound 54] | 100 to 500 nM
Cc1cccc(CCNC(=O)c2nn(Cc3ccc(Cl)cc3)c3ccccc23)n1 [Compound 55] | 100 to 500 nM
O=C(NCCc1nc2c(s1)CCCC2)c1nn(Cc2ccc(Cl)c(Cl)c2)c2ccccc12 [Compound 56] | 100 to 500 nM
O=C(NCCc1cccnc1)c1nn(Cc2ccc(F)cc2)c2ccccc12 [Compound 57] | 100 to 500 nM
O=C(NCCc1nnc2n1CCCCC2)c1nn(Cc2cccc(F)c2)c2ccccc12 [Compound 58] | 100 to 500 nM
Cc1ccc(Cn2nc(C(=O)NCCc3nnc4n3CCC4)c3ccccc32)cc1 [Compound 59] | 100 to 500 nM
Cc1ccc(Cn2nc(C(=O)NCCc3nc4c(s3)CCCC4)c3c(C#N)cccc32)cc1 [Compound 60] | 100 to 500 nM
COc1ccc(CCNC(=O)c2nn(Cc3ccc(Cl)cc3)c3ccccc23)nc1 [Compound 61] | 100 to 500 nM
COc1ccnc(CCNC(=O)c2nn(Cc3ccc(Cl)cc3)c3ccccc23)c1 [Compound 62] | 100 to 500 nM
Cc1ccc(Cn2nc(C(=O)NCCc3ccccn3)c3ccccc32)cc1 [Compound 63] | 100 to 500 nM
COc1cc(Cl)ccc1Cn1nc(C(=O)NCCc2nnc3n2CCCCC3)c2ccccc21 [Compound 64] | 100 to 500 nM
Cc1ccc(Cn2nc(C(=O)NCCc3nc4c(s3)COCC4)c3ccccc32)cc1 [Compound 65] | 100 to 500 nM
COc1ccc(Cn2nc(C(=O)NCCc3cccnc3)c3ccccc32)cc1 [Compound 66] | 100 to 500 nM
Cc1ccc(Cn2nc(C(=O)NCCc3cccnc3)c3c(C#N)cccc32)cc1 [Compound 67] | 100 to 500 nM
Cc1cc(Cn2nc(C(=O)NCCc3nc4c(s3)CCCC4)c3ccccc32)ccc1Cl [Compound 68] | 100 to 500 nM
Cc1ccc(Cn2nc(C(=O)NCCc3nc4c(s3)CCCC4)c3c(F)cccc32)cc1 [Compound 69] | 100 to 500 nM
Cc1ccc(Cn2nc(C(=O)NCCc3cccnc3)c3c(F)cccc32)cc1 [Compound 70] | 501 to 1000 nM
O=C(NCCc1c[nH]c2ccccc12)c1nn(Cc2ccc(OC(F)F)cc2)c2ccccc12 [Compound 71] | 501 to 1000 nM
N#Cc1ccc(Cn2nc(C(=O)NCCc3cccnc3)c3ccccc32)cc1 [Compound 72] | 501 to 1000 nM
Cc1ccc(Cn2nc(C(=O)NCCc3c[nH]nn3)c3ccccc32)cc1 [Compound 73] | 501 to 1000 nM
CC(c1ccc(Cl)cc1)n1nc(C(=O)NCCc2nnc3n2CCCCC3)c2ccccc21 (stereo not drawn) [Compound 74] | 501 to 1000 nM
COc1cccc(CCNC(=O)c2nn(Cc3ccc(Cl)cc3)c3ccccc23)n1 [Compound 75] | 501 to 1000 nM
